Where “and” joins values, the source holds several entries; their conditions need not be identical. Equal entries are not always repeated. Inconclusive results and toxic doses are left out. Rule as the data show it: active = T/C of 150% or more; inactive = T/C below 125%.
Test system: L1210 leukemia ip in BDF1 mice, survival T/C
Assay: NCI In Vivo Anticancer Drug Screen. Data for tumor model L1210 Leukemia (intraperitoneal) in B6D2F1 (BDF1) mice
Conditions: endpoint: mean survival time, higher = longer survival
Outline: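 Tumor cells were implanted, animals were treated, and survival was followed. The result divides the treated measurement by the vehicle-control measurement.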

[1] = dose: 100.0 mg/kg/injection, schedule: Q01DX001 (ip), vehicle: saline
[2] = dose: 200.0 mg/kg/injection, schedule: Q01DX001 (ip), vehicle: saline
[3] = dose: 400.0 mg/kg/injection, schedule: Q01DX001 (ip), vehicle: saline
[4] = dose: 100.0 mg/kg/injection, schedule: Q01DX001 (ip), vehicle: Klucel (hydroxypropylcellulose) (HPC)
[5] = dose: 100.0 mg/kg/injection, schedule: Q04DX003 (ip), vehicle: Klucel (hydroxypropylcellulose) (HPC)
[6] = dose: 200.0 mg/kg/injection, schedule: Q01DX001 (ip), vehicle: Klucel (hydroxypropylcellulose) (HPC)
[7] = dose: 200.0 mg/kg/injection, schedule: Q04DX003 (ip), vehicle: Klucel (hydroxypropylcellulose) (HPC)
[8] = dose: 400.0 mg/kg/injection, schedule: Q04DX003 (ip), vehicle: Klucel (hydroxypropylcellulose) (HPC)
[9] = dose: 100.0 mg/kg/injection, schedule: Q01DX009 (ip), vehicle: Klucel (hydroxypropylcellulose) (HPC)
[10] = dose: 200.0 mg/kg/injection, schedule: Q01DX009 (ip), vehicle: Klucel (hydroxypropylcellulose) (HPC)
[11] = dose: 400.0 mg/kg/injection, schedule: Q01DX009 (ip), vehicle: Klucel (hydroxypropylcellulose) (HPC)
[12] = dose: 100.0 mg/kg/injection, schedule: Q04DX003 (ip), vehicle: saline with Tween-80
[13] = dose: 200.0 mg/kg/injection, schedule: Q04DX003 (ip), vehicle: saline with Tween-80
[14] = dose: 400.0 mg/kg/injection, schedule: Q04DX003 (ip), vehicle: saline with Tween-80
[15] = dose: 25.0 mg/kg/injection, schedule: Q04DX003 (ip), vehicle: saline with Tween-80
[16] = dose: 50.0 mg/kg/injection, schedule: Q04DX003 (ip), vehicle: saline with Tween-80
[17] = dose: 25.0 mg/kg/injection, schedule: Q04DX003 (ip), vehicle: Klucel (hydroxypropylcellulose) (HPC)
[18] = dose: 50.0 mg/kg/injection, schedule: Q04DX003 (ip), vehicle: Klucel (hydroxypropylcellulose) (HPC)
[19] = dose: 100.0 mg/kg/injection, schedule: Q01DX001 (ip), vehicle: saline with Tween-80
[20] = dose: 200.0 mg/kg/injection, schedule: Q01DX001 (ip), vehicle: saline with Tween-80

Measured: T/C

CCCCSc1n[nH]c(=O)[nH]c1=O
inactive: [1] 113 % of control | [2] 92 % of control | [3] 95 % of control

CN(NC(=O)CC(=O)NN(C)C(=S)c1ccccc1)C(=S)c1ccccc1
inactive: dose: 25.0 mg/kg/injection, schedule: Q01DX009 (ip), vehicle: gum acacia 109 % of control | dose: 50.0 mg/kg/injection, schedule: Q01DX009 (ip), vehicle: gum acacia 104 % of control | dose: 100.0 mg/kg/injection, schedule: Q01DX009 (ip), vehicle: gum acacia 100 % of control and 92 % of control | dose: 100.0 mg/kg/injection, schedule: Q04DX003 (ip), vehicle: gum acacia 90 % of control | dose: 200.0 mg/kg/injection, schedule: Q04DX003 (ip), vehicle: gum acacia 97 % of control | dose: 400.0 mg/kg/injection, schedule: Q04DX003 (ip), vehicle: gum acacia 92 % of control

Cc1cc(C)n(/N=C/c2c[nH]c3ccccc23)c(=O)c1C#N
inactive: [4] 97 % of control | [5] 97 % of control | [6] 97 % of control | [7] 94 % of control | dose: 400.0 mg/kg/injection, schedule: Q01DX001 (ip), vehicle: Klucel (hydroxypropylcellulose) (HPC) 96 % of control | [8] 97 % of control

Cc1noc(C)c1CC1(Cc2c(C)noc2C)C(=O)CCC2(C)CCCC=C21 (stereo not drawn)
inactive: [9] 92 % of control | [5] 95 % of control | [10] 98 % of control | [7] 93 % of control | [11] 97 % of control | [8] 96 % of control

CN=C(NO)c1ccccc1
inactive: [4] 107 % of control | [6] 98 % of control

O=C(Nc1ccccc1)c1ccc2c(c1)C(=O)N(c1ccccc1)C2=O
inactive: dose: 100.0 mg/kg/injection, schedule: Q04DX002 (ip), vehicle: saline 90 % of control | dose: 200.0 mg/kg/injection, schedule: Q04DX002 (ip), vehicle: saline 87 % of control

CCCCC(CCCC)(C(=O)OCC)C(=O)OCC
inactive: dose: 100.0 mg/kg/injection, schedule: Q04DX002 (ip), vehicle: saline with Tween-80 94 % of control | [5] 96 % of control | dose: 200.0 mg/kg/injection, schedule: Q04DX002 (ip), vehicle: saline with Tween-80 94 % of control | [7] 105 % of control | dose: 400.0 mg/kg/injection, schedule: Q04DX002 (ip), vehicle: saline with Tween-80 94 % of control | [8] 91 % of control

CCCCCCOP(=O)(N1CC1C)N1CC1C (stereo not drawn)
inactive: dose: 12.0 mg/kg/injection, schedule: Q01DX Z (ip), vehicle: saline 102 % of control | dose: 25.0 mg/kg/injection, schedule: Q01DX Z (ip), vehicle: saline 103 % of control | dose: 50.0 mg/kg/injection, schedule: Q01DX Z (ip), vehicle: saline 102 % of control and 111 % of control | dose: 100.0 mg/kg/injection, schedule: Q01DX Z (ip), vehicle: saline 109 % of control | dose: 200.0 mg/kg/injection, schedule: Q01DX Z (ip), vehicle: saline 107 % of control | dose: 400.0 mg/kg/injection, schedule: Q01DX Z (ip), vehicle: saline 106 % of control

NC(=O)Nc1cc(NC(N)=O)cc(N(CCO)CCO)c1
inactive: dose: 100.0 mg/kg/injection, schedule: Q01DX009 (ip), vehicle: water 97 % of control | dose: 100.0 mg/kg/injection, schedule: Q04DX003 (ip), vehicle: water 102 % of control | dose: 200.0 mg/kg/injection, schedule: Q01DX009 (ip), vehicle: water 97 % of control | dose: 200.0 mg/kg/injection, schedule: Q04DX003 (ip), vehicle: water 102 % of control | dose: 400.0 mg/kg/injection, schedule: Q01DX009 (ip), vehicle: water 103 % of control | dose: 400.0 mg/kg/injection, schedule: Q04DX003 (ip), vehicle: water 104 % of control

CCCCCCCCCCCCCCCCOc1ccc(C)cc1
inactive: [12] 100 % of control | [13] 103 % of control | [14] 97 % of control

CCCC(C)(Cl)C(=O)Nc1cccc(OC(=O)NC)c1 (stereo not drawn)
inactive: [12] 92 % of control | [13] 90 % of control | [14] 90 % of control

CCOC(=O)C(Nc1ccc(SC)cc1)c1ccccc1 (stereo not drawn)
inactive: [1] 110 % of control | [2] 98 % of control | [3] 98 % of control

Cc1cc(N=Nc2ccccc2C)ccc1N
inactive: dose: 3.0 mg/kg/injection, schedule: Q01DX009 (ip), vehicle: DMSO 97 % of control | dose: 6.0 mg/kg/injection, schedule: Q01DX009 (ip), vehicle: DMSO 90 % of control | dose: 12.0 mg/kg/injection, schedule: Q01DX009 (ip), vehicle: DMSO 98 % of control | dose: 12.5 mg/kg/injection, schedule: Q01DX009 (ip), vehicle: DMSO 95 % of control | dose: 12.5 mg/kg/injection, schedule: Q04DX003 (ip), vehicle: DMSO 100 % of control | dose: 25.0 mg/kg/injection, schedule: Q04DX003 (ip), vehicle: DMSO 98 % of control | dose: 50.0 mg/kg/injection, schedule: Q04DX003 (ip), vehicle: DMSO 96 % of control

C=CCNC(=S)N(Cc1ccccc1)Cc1ccccc1
inactive: dose: 100.0 mg/kg/injection, schedule: Q04DX002 (ip), vehicle: Klucel (hydroxypropylcellulose) (HPC) 105 % of control | dose: 200.0 mg/kg/injection, schedule: Q04DX002 (ip), vehicle: Klucel (hydroxypropylcellulose) (HPC) 101 % of control | dose: 400.0 mg/kg/injection, schedule: Q04DX002 (ip), vehicle: Klucel (hydroxypropylcellulose) (HPC) 94 % of control

COc1cc(/C=C\[N+](=O)[O-])ccc1O
inactive: [15] 93 % of control | [16] 96 % of control | [12] 95 % of control

CCN(CC)CC(=O)c1ccc(O)c(O)c1
inactive: dose: 53.0 mg/kg/injection, schedule: Q01DX Z (ip), vehicle: carboxymethylcellulose (CMC) 109 % of control | dose: 83.0 mg/kg/injection, schedule: Q01DX Z (ip), vehicle: carboxymethylcellulose (CMC) 120 % of control | dose: 125.0 mg/kg/injection, schedule: Q01DX Z (ip), vehicle: carboxymethylcellulose (CMC) 105 % of control | dose: 187.0 mg/kg/injection, schedule: Q01DX Z (ip), vehicle: carboxymethylcellulose (CMC) 115 % of control

FC(F)c1nc2nc(Cl)c(Cl)nc2[nH]1
inactive: dose: 25.0 mg/kg/injection, schedule: Q01DX009 (ip), vehicle: saline with Tween-80 100 % of control | [15] 101 % of control | dose: 50.0 mg/kg/injection, schedule: Q01DX009 (ip), vehicle: saline with Tween-80 105 % of control | [16] 97 % of control | [12] 102 % of control and 106 % of control

CCCC(C)(COC(N)=O)COC(=O)NC(C)C (stereo not drawn)
inactive: dose: 25.0 mg/kg/injection, schedule: Q01DX009 (ip), vehicle: Klucel (hydroxypropylcellulose) (HPC) 102 % of control | [17] 101 % of control | dose: 50.0 mg/kg/injection, schedule: Q01DX009 (ip), vehicle: Klucel (hydroxypropylcellulose) (HPC) 97 % of control | [18] 92 % of control | [9] 94 % of control | [5] 101 % of control | [10] 97 % of control | [7] 95 % of control | [11] 88 % of control | [8] 101 % of control

Nc1ccc(OCCNS(=O)(=O)c2ccc(S(=O)(=O)F)cc2)c(Cl)c1
inactive: [17] 97 % of control | dose: 50.0 mg/kg/injection, schedule: Q01DX001 (ip), vehicle: saline with Tween-80 91 % of control | [18] 97 % of control | [19] 92 % of control | [5] 99 % of control and 105 % of control | [20] 100 % of control

CC(C)NCC(C#N)C1CCCCC1 (stereo not drawn)
inactive: [19] 97 % of control | [20] 93 % of control | dose: 400.0 mg/kg/injection, schedule: Q01DX001 (ip), vehicle: saline with Tween-80 97 % of control

From PubChem BioAssay AID248 (DTP/NCI, 2004)
